In the assay the target is AMPK. Briefly: AMPK activation, enzyme-linked immunosorbent assay. The assay is classed as biochemical. Particulars: EC50 for AMPK activation, ELISA. An outline of the steps:
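Kit-based immunoassay; compounds screened as activators; standard reagents and protocol.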
As for `N#Cc1ccc(CN2CCC(NC(=O)c3ccc(C(=O)N4CCC(Oc5ccc(NC(=O)CCOCCOCCOCCOCCNC(=O)CCC[C@@H]6SC[C@@H]7NC(=O)N[C@@H]76)cc5)CC4)nc3)CC2)cc1` [Compound 371, N-(1-(4-cyanobenzyl)piperidin-4-yl)-6-(4-(4-(17-oxo-20-((3aS,4S,6aR)-2-oxohexahydro-1H-thieno[3,4-d]imidazol-4-yl)-4,7,10,13-tetraoxa-16-azaicosanamido)phenoxy)piperidine-1-carbonyl)nicotinamide], the EC50 is above 10000 nM.

For the molecule `O=C(Nc1ccc(C(=O)N2CCN(Cc3ccc(F)cc3)CC2)cn1)c1ccc(-c2ccccc2)cc1` [Compound 170, N-(5-(4-(4-fluorobenzyl)piperazine-1-carbonyl)pyridin-2-yl)biphenyl-4-carboxamide], the concentration for a half-maximal effect (EC50) was above 10000 nM.

Molecule `CC(=O)c1ccc(Oc2ccc(NC(=O)c3ccc(C(=O)N4CCC(S(=O)(=O)c5ccc(F)cc5)CC4)nc3)cn2)cc1` [Compound 473, N-(6-(4-acetylphenoxy)pyridin-3-yl)-6-(4-(4-fluorophenylsulfonyl)piperidine-1-carbonyl)nicotinamide] gave an EC50 of 1000 to 5000 nM.

The molecule `COc1ccc(CN2CCC(NC(=O)c3ccc(C(=O)N4CCC(Oc5cccc(NC(=O)C6CC6)c5)CC4)nc3)CC2)cc1` [Compound 435, 6-(4-(3-(cyclopropanecarboxamido)phenoxy)piperidine-1-carbonyl)-N-(1-(4-methoxybenzyl)piperidin-4-yl)nicotinamide] came in with an EC50 below 500 nM.

As to `N#Cc1ccc(CN2CCC(NC(=O)c3ncc(C(=O)N4CCN(Cc5ccc(F)cc5)CC4)cc3CCCNC(=O)CCOCCOCCOCCOCCNC(=O)CCCC[C@@H]3SC[C@@H]4NC(=O)N[C@@H]43)CC2)cc1` [Compound 291, N-(1-(4-cyanobenzyl)piperidin-4-yl)-3-(5,21-dioxo-25-((3aS,4S,6aR)-2-oxohexahydro-1H-thieno[3,4-d]imidazol-4-yl)-8,11,14,17-tetraoxa-4,20-diazapentacosyl)-5-(4-(4-fluorobenzyl)piperazine-1-carbonyl)picolinamide], the EC50 is below 500 nM.

As to `CC(=O)c1ccc(OC2CCN(C(=O)c3ccc(C(=O)NC4CCN(Cc5ccc(C#N)cc5)CC4)cn3)CC2)cc1` [Compound 390, 6-(4-(4-acetylphenoxy)piperidine-1-carbonyl)-N-(1-(4-cyanobenzyl)piperidin-4-yl)nicotinamide], the EC50 is below 500 nM.

For the molecule `COc1ccc(OC2CCN(C(=O)c3ccc(C(=O)NC4CCN(Cc5ccc(C#N)cc5)CC4)cn3)CC2)c(NS(C)(=O)=O)c1` [Compound 389, N-(1-(4-cyanobenzyl)piperidin-4-yl)-6-(4-(4-methoxy-2-(methylsulfonamido)phenoxy)piperidine-1-carbonyl)nicotinamide], the 50% effective concentration (EC50) lay in the range of 1000 to 5000 nM.

Consider `CCS(=O)(=O)c1ccc(C(=O)C2CCN(C(=O)c3ccc(C(=O)NC4CCN(Cc5ccc(C#N)cc5)CC4)nc3)CC2)cc1` [Compound 260, N-(1-(4-cyanobenzyl)piperidin-4-yl)-5-(4-(4-(ethylsulfonyl)benzoyl)piperidine-1-carbonyl)picolinamide], for which the 50% effective concentration (EC50) is below 500 nM.

`COc1ccc(OC2CCN(C(=O)c3ccc(C(=O)NC4CCN(Cc5cc(F)cc(F)c5)CC4)nc3)CC2)cc1` [Compound 296, N-(1-(3,5-difluorobenzyl)piperidin-4-yl)-5-(4-(4-methoxyphenoxy)piperidine-1-carbonyl)picolinamide]: the EC50 was below 500 nM.

With `CN(C)C(=O)c1ccc(OC2CCN(C(=O)c3ccc(C(=O)Nc4ccc(Oc5ccc(F)cc5)nc4)nc3)CC2)cc1` [Compound 360, 5-(4-(4-(dimethylcarbamoyl)phenoxy)piperidine-1-carbonyl)-N-(6-(4-fluorophenoxy)pyridin-3-yl)picolinamide], the EC50 was below 500 nM.

On to `COc1ccc(C(=O)C2CCN(C(=O)c3ccc(C(=O)N[C@H]4CC[C@@H](Oc5cc(F)cc(F)c5)CC4)nc3)CC2)cc1` [Compound 300, N-((cis)-4-(3,5-difluorophenoxy)cyclohexyl)-5-(4-(4-methoxybenzoyl)piperidine-1-carbonyl)picolinamide], for which the 50% effective concentration (EC50) was below 500 nM.

`COc1ccc(C(=O)C2CCN(C(=O)c3ccc(C(=O)Nc4ccc(Oc5ccc(C#N)cc5)cn4)cn3)CC2)cc1` [Compound 468, N-(5-(4-cyanophenoxy)pyridin-2-yl)-6-(4-(4-methoxybenzoyl)piperidine-1-carbonyl)nicotinamide] came in with a concentration giving a half-maximal response (EC50) below 500 nM.

`N#Cc1ccc(-c2ccc(Nc3ccc(C(=O)NC4CCN(Cc5ccccc5)CC4)nc3)cc2)cc1` [Compound 119, N-(1-benzylpiperidin-4-yl)-5-(4′-cyanobiphenyl-4-ylamino)picolinamide] displayed a concentration for a half-maximal effect (EC50) of 1000 to 5000 nM.

`O=C(Nc1ccc(Oc2ccc(F)cc2)nc1)c1ccc(C(=O)N2CCC(Oc3ccc(F)cc3F)CC2)nc1` [Compound 343, 6-(4-(2,4-difluorophenoxy)piperidine-1-carbonyl)-N-(6-(4-fluorophenoxy)pyridin-3-yl)nicotinamide] displayed a concentration for a half-maximal effect (EC50) below 500 nM.

Regarding `COc1ccc(C(=O)C2CCN(C(=O)c3ccc(C(=O)N[C@@H]4CCN(Cc5ccc(C#N)cc5)C[C@H]4F)cn3)CC2)cc1` [Compound 452, N-((3R,4R)-1-(4-cyanobenzyl)-3-fluoropiperidin-4-yl)-6-(4-(4-methoxybenzoyl)piperidine-1-carbonyl)nicotinamide], the half-maximal effective concentration (EC50) is below 500 nM.

`COc1ccc(C(=O)C2CCN(C(=O)c3ccc(C(=O)NC4CCN(Cc5ccc(NC(=O)CCOCCOCCOCCNC(=O)CCCC[C@@H]6SC[C@@H]7NC(=O)N[C@@H]76)cc5)CC4)nc3)CC2)cc1` [Compound 403, 5-(4-(4-methoxybenzoyl)piperidine-1-carbonyl)-N-(1-(4-(14-oxo-18-((3aS,4S,6aR)-2-oxohexahydro-1H-thieno[3,4-d]imidazol-4-yl)-4,7,10-trioxa-13-azaoctadecanamido)benzyl)piperidin-4-yl)picolinamide] gave an EC50 above 10000 nM.

As to `N#Cc1ccc(CN2CCC(NC(=O)c3ccc(C(=O)N4CC(Oc5ccc(C#N)cc5)C4)cn3)CC2)cc1` [Compound 209, N-(1-(4-cyanobenzyl)piperidin-4-yl)-5-(3-(4-cyanophenoxy)azetidine-1-carbonyl)picolinamide], the EC50 is below 500 nM.

`N#Cc1ccc(CN2CCC(NC(=O)c3ccc(C(=O)N4CCN(CC5CCCCC5)CC4)cn3)CC2)cc1` [Compound 95, N-(1-(4-cyanobenzyl)piperidin-4-yl)-5-(4-(cyclohexylmethyl)piperazine-1-carbonyl)picolinamide] registered a concentration giving a half-maximal response (EC50) below 500 nM.

Regarding `COc1ccc(C(=O)C2CCN(C(=O)c3ccc(C(=O)N[C@@H]4CCN(Cc5ccc(C#N)cc5)C[C@H]4F)cn3)CC2)cc1` (relative stereo) [Compound 349, N-((trans)-1-(4-cyanobenzyl)-3-fluoropiperidin-4-yl)-6-(4-(4-methoxybenzoyl)piperidine-1-carbonyl)nicotinamide], the EC50 was below 500 nM.

Consider `N#Cc1ccc(OC2CN(C(=O)c3ccc(C(=O)Nc4ccc(Oc5ccc(F)cc5)nc4)nc3)C2)cc1` [Compound 210, 5-(3-(4-cyanophenoxy)azetidine-1-carbonyl)-N-(6-(4-fluorophenoxy)pyridin-3-yl)picolinamide], for which the concentration for a half-maximal effect (EC50) was above 10000 nM.

These data come from patent US9663496B2, “AMPK-activating heterocyclic compounds and methods for using the same” (Rigel Pharmaceuticals, Inc., priority 2010, dated 2017).
